{"source": "paper PMC12974487", "about": "“Inhibition of FicD-mediated AMPylation and deAMPylation by isoprenoid diphosphates” (Proceedings of the National Academy of Sciences of the …, 2026)", "key": {"[1]": {"target": "T1, FicD^L258D (Homo sapiens, UniProt Q9BVA6, L258D)", "T1 construct": "soluble ER luminal domain (residues 105 to 458) of wild-type human FicD and three mutants; 6xHis-Sumo (N, cleaved yes); made in house; host or cells: Rosetta(DE3) E. coli", "T1 sequence (Q9BVA6 105-458 L258D)": "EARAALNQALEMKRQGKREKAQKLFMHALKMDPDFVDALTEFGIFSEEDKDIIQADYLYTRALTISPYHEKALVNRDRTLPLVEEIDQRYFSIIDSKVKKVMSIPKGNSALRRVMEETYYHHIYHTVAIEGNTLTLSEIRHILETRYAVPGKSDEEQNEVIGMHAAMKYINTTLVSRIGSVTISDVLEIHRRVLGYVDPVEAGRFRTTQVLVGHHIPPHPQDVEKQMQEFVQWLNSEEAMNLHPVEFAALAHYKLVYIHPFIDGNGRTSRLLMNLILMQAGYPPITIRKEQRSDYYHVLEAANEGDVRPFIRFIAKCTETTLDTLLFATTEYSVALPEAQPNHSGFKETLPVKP", "experiment": "Differential scanning fluorimetry (DSF) thermal shift with FicD^L258D", "assay_type": "binding", "conditions": "for EC50: read-out: EC50 of DSF dose-response (ΔTm)"}, "[2]": {"target": "T2, VopS (Vibrio parahaemolyticus serotype O3:K6, UniProt Q87P32)", "T2 construct": "made in house", "T2 sequence (Q87P32 31-387)": "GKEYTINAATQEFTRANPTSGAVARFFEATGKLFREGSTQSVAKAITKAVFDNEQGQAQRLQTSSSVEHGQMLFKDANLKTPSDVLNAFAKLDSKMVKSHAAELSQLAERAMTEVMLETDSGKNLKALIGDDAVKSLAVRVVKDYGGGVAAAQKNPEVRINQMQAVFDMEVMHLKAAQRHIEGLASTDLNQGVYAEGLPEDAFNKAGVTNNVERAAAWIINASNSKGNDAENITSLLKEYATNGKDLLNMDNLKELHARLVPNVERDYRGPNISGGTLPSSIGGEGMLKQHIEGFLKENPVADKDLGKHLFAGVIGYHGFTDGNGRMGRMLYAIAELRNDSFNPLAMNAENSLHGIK", "experiment": "In vitro AMPylation of GST-CDC42 by VopS", "assay_type": "biochemical", "excerpt": "Finally, we explored the inhibitory effects of GPP/FPP on other Fido proteins to see if these metabolites could serve as generic inhibitors of Fido domains. To test this specificity, we performed in vitro activity assays with GPP/FPP and two constitutively active Fido proteins from bacteria: VopS from Vibrio parahaemolyticus ([25]) and AvrB from Pseudomonas syringae ([30]). […]\nvisualization. Min-max scaled RFU values and the first derivatives are plotted as a function of temperature in Graphpad Prism 10.6.1. In Prism, the first derivative values are uniformly nudged by -1 to facilitate presenting RFU values and their first derivatives on the same graph.\nTo generate dose-response curves, ΔTm, was first calculated by subtracting the Tm of the ’no ligand’ control from the Tm of relevant ligand-containing reactions. ΔTm was then plotted as a function of ligand concentration. Dose-response curves were fit using GraphPad Prism 10.6.1 with the [Agonist] vs. Response – Variable Slope (four parameters) model. […]\nDialyzed proteins were then spun down at 21,000G for 15 minutes at 4C to remove trace insoluble material. The protein concentration was measured spectrophotometrically and then diluted to working concentration with 25mM HEPES pH 7.4/100mM KCl/10% glycerol. […] Integrated data was globally analyzed in SEDPHAT 15.b (12) using a model considering a single class of binding sites. […]"}}, "note": "Entries after “also recorded” stand apart in the source; their conditions may differ."}
{"smiles": "CC(C)=CCC/C(C)=C/COP(=O)(O)OP(=O)(O)O", "note": "[GPP, geranyl-pyrophosphate]", "values": [{"measurement": "apparent binding (DSF EC50) fold tighter than that of ADP", "setting": "[1]; FicD^L258D, 5 mM MgCl2", "value": "20 to 30", "unit": "fold"}, {"measurement": "EC50", "setting": "[1]; FicD^L258D, 5 mM MgCl2", "value": 14.8, "unit": "µM"}, {"measurement": "effect on AMPylation activity of VopS", "setting": "[2]", "value": "Neither GPP nor FPP affected"}]}
{"smiles": "CC(C)=CCC/C(C)=C/CC/C(C)=C/COP(=O)(O)OP(=O)(O)O", "note": "[FPP, farnesyl-pyrophosphate]", "values": [{"measurement": "apparent binding (DSF EC50) fold tighter than that of ADP", "setting": "[1]; FicD^L258D, 5 mM MgCl2", "value": "20 to 30", "unit": "fold"}, {"measurement": "binding to FicD^L258D by DSF", "setting": "[1]; absence of MgCl2", "value": "did not bind"}, {"measurement": "binding to FicD^L258D by DSF", "setting": "[1]; presence of 5 mM MgCl2", "value": "bound"}, {"measurement": "effect on AMPylation activity of VopS", "setting": "[2]", "value": "Neither GPP nor FPP affected; also recorded: not inhibited"}]}
{"smiles": "Nc1ncnc2c1ncn2[C@@H]1O[C@H](COP(=O)(O)OP(=O)(O)O)[C@@H](O)[C@H]1O", "note": "[ADP]", "values": [{"measurement": "maximal Tm shift at saturating ligand concentration", "setting": "[1]; FicD^L258D, 5 mM MgCl2", "value": "~ 10 °C"}, {"measurement": "EC50", "setting": "[1]; FicD^L258D, 5 mM MgCl2", "value": 370, "unit": "µM"}, {"measurement": "binding to FicD^L258D by DSF", "setting": "[1]; absence of MgCl2", "value": "did not bind"}, {"measurement": "binding to FicD^L258D by DSF", "setting": "[1]; presence of 5 mM MgCl2", "value": "binding"}]}
